Drawing on PubChem BioAssay AID1259408 (Genetic Toxicology Data Bank (GENE-TOX), 2018), this text covers mutagenic call and call for 19 molecules.

For the series, the system named is GENE-TOX genotoxicity assays, various organisms and cells. Description: GENE-TOX mutagenicity studies. Particulars: for call: Assay Type: In vivo carcinogenicity studies.
[1] abbreviates: Species/Cell Type: Saccharomyces cerevisiae, Assay Type: Mitotic recombination or gene conversion, Assay Code: YEH-, Evaluation Type: Evaluation A (Pre-1980).
Where [2] appears, read: Species/Cell Type: Salmonella typhimurium (one or more of the five standard strains: TA98, TA100, TA1535, TA1537, and TA1538), Assay Type: Histidine reverse gene mutation, Ames assay, Assay Code: SAL-, Evaluation Type: Evaluation A (Pre-1980).
[3] abbreviates: Species/Cell Type: Mammalian polychromatic erythrocytes, Assay Type: Micronucleus test, chromosome aberrations, Assay Code: MNTT, Evaluation Type: Evaluation B (Post-1980).
Setting [4] is: Species/Cell Type: Nonhuman, Assay Code: CCG+, Evaluation Type: Evaluation A (Pre-1980).
Where [5] appears, read: Species/Cell Type: Saccharomyces cerevisiae, Assay Type: Mitotic recombination or gene conversion, Assay Code: YEC-*, Activation: With metabolic activation, Evaluation Type: Evaluation A (Pre-1980).
[6] abbreviates: Species/Cell Type: Salmonella typhimurium (one or more of the five standard strains: TA98, TA100, TA1535, TA1537, and TA1538), Assay Type: Histidine reverse gene mutation, Ames assay, Assay Code: SALT, Evaluation Type: Evaluation A (Pre-1980).

Calls of active or inactive are those of the source. The rule behind the calls is not given here.

Consider `CCOS(=O)(=O)CCCS(=O)(=O)OCC`, for which the mutagenic call by setting is: (Species/Cell Type: Arabidopsis species, Assay Type: Gene mutation, Assay Code: ARM+D, Dose Response: With dose response, Evaluation Type: Evaluation A (Pre-1980)) “active; positive”; (Species/Cell Type: Hordeum vulgare (barley), Assay Type: Chromosome aberrations, Assay Code: HOC+D, Dose Response: With dose response, Evaluation Type: Evaluation A (Pre-1980)) “active; positive”.
Regarding `C[C@H]1CCCC(=O)CCC/C=C/c2cc(O)cc(O)c2C(=O)O1`, the mutagenic call reads like this: (Species/Cell Type: Bacillus subtilis (H17 vs M45), Assay Type: Rec-assay, spot test, DNA effects (bacterial DNA repair), Assay Code: REW+, Evaluation Type: Evaluation A (Pre-1980)) “active; positive”; under setting [1], “inactive; negative”.
Regarding `CN(C)c1ccc(C(=N)c2ccc(N(C)C)cc2)cc1`, the mutagenic call is “active; positive” (Species/Cell Type: Escherichia coli polA (W3119 vs P3478), Assay Type: Rec-assay, DNA effects (bacterial DNA repair), Assay Code: RE1+, Evaluation Type: Evaluation A (Pre-1980)); “no conclusion” (Species/Cell Type: Mammalian polychromatic erythrocytes, Assay Type: Micronucleus test, chromosome aberrations, Assay Code: MNTT, Evaluation Type: Evaluation A (Pre-1980)); “active; positive” (Species/Cell Type: Nonhuman, Assay Type: Sister-chromatid exchange (SCE) in vitro, Assay Code: SC2+*, Activation: With metabolic activation, Evaluation Type: Evaluation B (Post-1980)); “active; positive” (Species/Cell Type: Nonhuman, Assay Type: Sister-chromatid exchange (SCE) in vivo, Assay Code: SC3+, Evaluation Type: Evaluation B (Post-1980)); “active; positive” (Species/Cell Type: Saccharomyces cerevisiae, Assay Type: Mitotic recombination or gene conversion, Assay Code: YEH+, Evaluation Type: Evaluation A (Pre-1980)); “inactive; negative” under setting [2]. Also, the mutagenic call (Species/Cell Type: Syrian hamster embryo (SHE) cells, Assay Type: Cell transformation, clonal assay, Assay Code: CTCT, Evaluation Type: Evaluation A (Pre-1980)) is given as “no conclusion”. Under “Species/Cell Type: Nonhuman, Assay Code: CCG+L, Evaluation Type: Evaluation A (Pre-1980)”, the call is “active; positive”.
For the molecule `ClCC1(Cl)OC1Cl` (configuration not stated), the mutagenic call (Species/Cell Type: Neurospora crassa, Assay Type: Forward gene mutation, Assay Code: NEF+, Evaluation Type: Evaluation A (Pre-1980)) is “active; positive” and the mutagenic call (Species/Cell Type: Neurospora crassa, Assay Type: Reverse gene mutation, Assay Code: NER+, Evaluation Type: Evaluation A (Pre-1980)) is “active; positive”.
For `O=NN(CCO)CCO`, the mutagenic call under setting [3] is recorded as “no conclusion”. Further, the call under setting [4] is “active; positive”.
As to `CN=C1CN(O)C(c2ccccc2)=c2cc(Cl)ccc2=N1`, the mutagenic call by setting is: (Species/Cell Type: Mammalian polychromatic erythrocytes, Assay Type: Micronucleus test, chromosome aberrations, Assay Code: MNT+, Evaluation Type: Evaluation B (Post-1980)) “active; positive”; under setting [5], “inactive; negative”; under setting [6], “no conclusion”; (Species/Cell Type: Salmonella typhimurium, Assay Type: Forward and reverse gene mutation, host-mediated assay, Assay Code: HMAT, Evaluation Type: Evaluation A (Pre-1980)) “no conclusion”.
`CCN(CC)C(=S)SSC(=S)N(CC)CC`: under setting [3], the mutagenic call is listed as “no conclusion”. Also, the call (Species/Cell Type: Nonhuman, Assay Code: CCG-, Evaluation Type: Evaluation A (Pre-1980)) is “inactive; negative”.
For `Nc1c(Cl)cc(-c2cc(Cl)c(N)c(Cl)c2)cc1Cl`, under “Species/Cell Type: Human diploid fibroblasts, Assay Type: Unscheduled DNA synthesis (UDS) in vitro, DNA effects, Assay Code: UDH+*, Activation: With metabolic activation, Evaluation Type: Evaluation A (Pre-1980)”, the mutagenic call was “active; positive”.
Turning to `c1ccc2c(c1)ccc1nc3c(ccc4ccccc43)nc12`, for the setting “Species/Cell Type: Drosophila melanogaster, Assay Type: Sex-linked recessive lethal gene mutation, Assay Code: SRLT, Evaluation Type: Evaluation A (Pre-1980)”, the mutagenic call is on record as “no conclusion”.
Take `OCSc1ncc[nH]1`: the mutagenic call (Species/Cell Type: Arabidopsis species, Assay Type: Gene mutation, Assay Code: ARM-, Evaluation Type: Evaluation A (Pre-1980)) is “inactive; negative”.
For the molecule `COc1ccc(-c2c(-c3ccc(OC)cc3)c3ccc(OC)cc3c3cc(OC)ccc23)cc1`, the mutagenic call under setting [6] is “no conclusion”.
Turning to `Cc1cccn2c1nc1ccc(N)nc12`, the mutagenic call (Species/Cell Type: Human, Assay Type: Sister-chromatid exchange (SCE) in vitro, Assay Code: SC1+D*, Activation: With metabolic activation, Dose Response: With dose response, Evaluation Type: Evaluation B (Post-1980)) is “active; positive”.
Consider `ClC1(Cl)C2(Cl)C3(Cl)C4(Cl)C(Cl)(Cl)C5(Cl)C3(Cl)C1(Cl)C5(Cl)C24Cl` (configuration not stated), for which the call under setting [4] is “active; positive”. The mutagenic call (Species/Cell Type: Rodents, Sex: Male, Assay Type: Dominant lethal test, Assay Code: DLT-, Evaluation Type: Evaluation A (Pre-1980)) was “inactive; negative”.
Consider `N#Cc1cccc2ccccc12`, for which, for the setting “Species/Cell Type: Allium cepa, Assay Type: Chromosome aberrations, Assay Code: ALC+D, Dose Response: With dose response, Evaluation Type: Evaluation A (Pre-1980)”, the mutagenic call is “active; positive”.
Take `CO[C@@H]1CC(O[C@H]2CC[C@@]3(C=O)[C@](O)(CC[C@]4(C)[C@]3(C)CC[C@]3(C)[C@@H](C5=CC(=O)OC5)CC[C@@]43O)C2)O[C@H](C)C1O[C@H]1C[C@@H](CO)[C@H](O)[C@@H](O)[C@@H]1O` (some centres not stated): the mutagenic call (Species/Cell Type: Nonhuman, Assay Type: Sister-chromatid exchange (SCE) in vitro, Assay Code: SC2-, Evaluation Type: Evaluation B (Post-1980)) was “inactive; negative”.
Turning to `CC1=C(/C=C/C(C)=C/C=C/C(C)=C/C=O)C(C)(C)CCC1`, for the setting “Species/Cell Type: Nonhuman, Assay Type: Sister-chromatid exchange (SCE) in vitro, Assay Code: SC2T, Evaluation Type: Evaluation B (Post-1980)”, the mutagenic call is recorded as “no conclusion”.
As for `NS(=O)(=O)c1cc(C(=O)O)c(NCc2ccco2)cc1Cl`, the mutagenic call runs as follows: (Species/Cell Type: Human, Assay Type: Sister-chromatid exchange (SCE) in vitro, Assay Code: SC1T, Evaluation Type: Evaluation B (Post-1980)) “no conclusion”; under setting [5], “inactive; negative”; under setting [6], “no conclusion”.
For the molecule `CC(N)=O`, the mutagenic call reads like this: (Species/Cell Type: Escherichia coli polA (W3110 vs P3478), Assay Type: Rec-assay, DNA effects (bacterial DNA repair), Assay Code: RE2-, Evaluation Type: Evaluation A (Pre-1980)) “inactive; negative”; (Species/Cell Type: Escherichia coli polA (W3119 vs P3478), Assay Type: Rec-assay, DNA effects (bacterial DNA repair), Assay Code: RE1T, Evaluation Type: Evaluation A (Pre-1980)) “no conclusion”; (Species/Cell Type: Fischer rat embryo (RLV/1706) cells, Assay Type: Cell transformation, viral enhanced, Assay Code: CTR+, Evaluation Type: Evaluation A (Pre-1980)) “active; positive”; (Species/Cell Type: Mammalian polychromatic erythrocytes, Assay Type: Micronucleus test, chromosome aberrations, Assay Code: MNT+U, Dose Response: Unconfirmed positive response, Evaluation Type: Evaluation B (Post-1980)) “active; positive”; (Species/Cell Type: Mouse embryo (AKR/ME) cells, Assay Type: Cell transformation, Assay Code: CTK+, Evaluation Type: Evaluation A (Pre-1980)) “active; positive”; (Species/Cell Type: Mouse, Sex: Male, Assay Type: Sperm morphology, Assay Code: SPI-, Evaluation Type: Evaluation A (Pre-1980)) “inactive; negative”. Moreover, the mutagenic call under setting [1] is “inactive; negative”; the mutagenic call under setting [2] is “inactive; negative”; the mutagenic call (Species/Cell Type: Salmonella typhimurium, Assay Type: Forward and reverse gene mutation, host-mediated assay, Assay Code: HMA-, Evaluation Type: Evaluation A (Pre-1980)) was “inactive; negative”; the mutagenic call (Species/Cell Type: Syrian hamster embryo (SHE) cells, Assay Type: Cell transformation, clonal assay, Assay Code: CTC+, Evaluation Type: Evaluation A (Pre-1980)) is “active; positive”. Further, the call under setting [4] is “active; positive”.
For `CCN(CCCl)CCCNc1c2ccc(Cl)cc2nc2ccc(OC)nc12`, the mutagenic call (Species/Cell Type: Chinese hamster ovary (CHO) cells, Assay Type: Forward gene mutation at the HPRT locus, Assay Code: CHO+, Evaluation Type: Evaluation B (Post-1980)) is “active; positive”.
